# From US20220105157A1, “Compositions and Methods for Promoting Angiogenesis in the Eye” (The Regents of the University of California, priority 2019, published 2022)
# Residues, ends and D or L forms follow the SMILES beside them. *: point of attachment. Cbz = O=C(OCc1ccccc1)*; CH2F = FC*
# Legend:
# [1] = system: bovine aortic endothelial (BAE) cells; experiment: BAE endothelial cell proliferation assay (alamar blue); assay type: cell-based; details: for rescue of the cell death phenotype induced by LIF: BAE cells, co-incubation with inhibitor; for reversal of LIF-induced growth inhibition in BAE cells: pre-incubation with inhibitor 1 hour, LIF 10 ng/ml, 6 days
# Experimental: (§1) The bovine endothelial proliferation assays were performed essentially as previously described (63, 64). BCE (1×10^3 cells/well) or BRE (5×10^2 cells/well) cells were seeded in 96-well plates in the culture medium (DMEM-low glucose supplemented with 10% BCS, 2 mM glutamine and antibiotics) plus testing materials with a total volume of 200 μl per well. BAE cells were plated in 96-well plates at a density of 2×10^3 cells in the culture medium (DMEM-low glucose supplemented with 1% BCS and antibiotics) plus testing material with a total volume of 200 μl per well. HRME cells were seeded at a density of 1×10^3 cells/well in gelatin-coated 96-well plates in assay medium (DMEM-low glucose supplemented with 20% FBS and antibiotics) plus testing materials to make a total volume 200 μl per well. For assays involving antibodies or small-molecule inhibitors, inhibitors or vehicle controls were first added and then test materials were added one hour later. After 6 days (unless otherwise specified), cells were incubated with alamar blue for 4 h. Fluorescence was measured at 530 nm excitation wavelength and 590 nm emission wavelength. Each experiment was carried out in duplicate/triplicate and repeated at least three times.
# [2] = system: phosphorylation of STAT3, ERK and AKT in BCE cells; experiment: Western blotting of LIF signaling in BCE cells; assay type: cell-based, bovine; details: pre-incubation 1 hour (baricitinib 2 μM, cobimetinib 150 nM, BEZ235 5 nM); for effect on AKT phosphorylation: with or without LIF 10 ng/ml 15 minutes
# Experimental: (§2) BCE and BAE cells were cultured in growth medium overnight. Growth medium was removed and then cells were washed twice with PBS. Recombinant human LIF was added to cells for 15 minutes, following 3-hour incubation in the following medium: DMEM-low glucose supplemented with 10% BCS, 2 mM glutamine and antibiotics for BCE cells, and DMEM-low glucose supplemented with 1% BCS and antibiotics for BAE cells. […] Cells were then lysed with RIPA lysis buffer (Life Technologies, CAT #89901) plus protease and phosphatase inhibitor cocktail (ThermoFisher Scientific CAT #78440). Protein concentrations in cell lysates were measured with the BCA assay (ThermoFisher Scientific CAT #23227). Equal amount of proteins were subjected to electrophoresis in NuPAGE 4-12% Bis-Tris gels (ThermoFisher Scientific, CAT #NW04125BOX) and then transferred onto PVDF membranes. Membranes were blocked with 5% non-fat milk in TBST at room temperature for 1 hour, incubated with primary antibodies indicated below in TBST containing 0.5% non-fat milk at 4° C. overnight then with secondary HRP-conjugated antibodies (1:2000, GE Healthcare) at room temperature for 1 h. Signals were developed with SuperSignal™ West Pico PLUS Chemiluminescent Substrate (ThermoFisher Scientific). Primary antibodies used: anti-phospho-STAT3 (Cell Signaling, CAT #9131, 1:3000), anti-STAT3 (Cell Signaling, CAT #4904, 1:3000), anti-phospho-ERK (Cell Signaling, CAT #4376, 1:5000), anti-ERK (Cell Signaling, CAT #4695, 1:5000), anti-phospho-AKT Ser473 (Cell Signaling, CAT #4060, 1:2000), anti-AKT (Cell Signaling, CAT #4691, 1:2000) and HRP-conjugated anti-beta-actin (Sigma, CAT #AC-15, 1; 10000).
# [3] = system: phosphorylation of STAT3, ERK and AKT in BAE cells; experiment: Western blotting of LIF signaling in BAE cells; assay type: cell-based, bovine; details: pretreatment 1 hour (baricitinib 2 μM, cobimetinib 150 nM, BEZ235 5 nM), LIF 10 ng/ml 15 minutes
# Experimental: as §2
# [4] = system: bovine choroidal endothelial (BCE) cells; experiment: BCE endothelial cell proliferation assay (alamar blue); assay type: cell-based; set-up: key to BCE cell growth normalized to the vehicle control group: ns, not statistically significant; details: for effect on LIF-induced BCE cell growth: pre-incubation with inhibitor 1 hour, LIF 10 ng/ml, 6 days; for BCE cell growth normalized to the vehicle control group: day 6, n = 3
# Experimental: as §1
# [5] = system: retinal vasculature of mouse eyes; experiment: Intravitreal injection of recombinant proteins in mouse eyes, retinal vessel density; assay type: in vivo; details: after exposure to 95° C. for 2 hours
# Experimental: Male C57BL/6J mice (6-8 week and P5) were anesthetized with ketamine/Xylazine cocktail. The indicated amounts of recombinant LIF (Sigma, CAT #SRP9001) in 1 μl of PBS and PBS vehicle control were injected intravitreally with a 33-gauge Hamilton syringe. Seven (for adult mice) or 3 (for neonatal mice) days after injection, animals were euthanized, eyes were then enucleated and fixed in 4% paraformaldehyde (PFA) for 15 min. Choroid-sclera complexes and retinas were separated and anti-CD31 immunofluorescence (IF) or lectin labeling was performed to evidence the vasculature by whole mount staining of both retina and choroidal tissues or flat-mounts of retina. For CD31 IF, rat anti-mouse antibody (BD Biosciences, CAT #550274) was diluted 1:100 and incubated overnight at 4° C. After 4-hour incubation with the Alexa Fluor-488-conjugated anti-rat antibody (Life Technologies, CAT #A11006), whole mounts were imaged via the 488 nm channel using Keyence Microscope BZ-X710 (Keyence Corporation, Osaka, Japan) or A1R Confocal STORM super-resolution system (Nikon). For lectin staining, Dylight-488-labeled lectin (Vector Laboratories, CAT #DL-1174) was diluted at 1:200 and images were obtained using A1R Confocal STORM super-resolution system (Nikon). For Quantification of vascular density in choroids and retina was carried out by Image J. Student's t test was used for statistical analysis. Each experiment was repeated three times with similar results each time, and each treatment group consists of 4 or 5 individual samples in every experiment. All animal experimental procedures were approved by the Institutional Animal Care and Use Committee (IACUC) of the University of California San Diego and conducted in accordance with the guidelines of the Animal Care Program (ACP).
# Optical coherence tomography angiography (OCTA) imaging of the retina of adult mice was performed 7 days after LIF injection, using a 1300 nm optical coherence tomography (OCT) system developed by Dr. R. K. Wang's group at University of Washington Seattle, in agreement with previously described methodology (66). Briefly, the swept laser operated in single longitude mode with a 90 nm bandwidth centered at 1300 nm and 200 kHz A-line rate was used to scan mouse retina and to generate images of vasculature in a field of view of 1.5×1.5 mm^2. 2500 B-frames were captured at 500 cross-sections with five repeated B-frames at each cross-section. To quantify the retinal vascular density, retinal and choroidal layers in 3D structure OCT scans were separated by the hyper-reflecting retinal pigment epithelium (RPE). Then the en face maximum intensity projection was generated. The vessel density was then determined by calculating the percentages of vessel-covered area in total area of view using the ImageJ software.
molecule,measurement,setting,value
"Cl.Nc1cccc2c(=O)[nH]ccc12 [5-AIQ, 5-AIQ hydrochloride]",rescue of the cell death phenotype induced by LIF,[1],not able rescue
"Cn1c(=O)n(-c2ccc(C(C)(C)C#N)cc2)c2c3cc(-c4cnc5ccccc5c4)ccc3ncc21 [BEZ235, reference compound]",effect on AKT phosphorylation,[2],only moderate effects
same,effect on LIF-induced phosphorylation of AKT,[3],effectively repressed
same,effect on LIF-induced BCE cell growth,[4],no effect
"CCCNC(=O)[C@H]1O[C@@H]1C(=O)N[C@H](C(=O)N1CCC[C@H]1C(=O)O)[C@@H](C)CC [CA074, CA-074]",suppression of LIF-induced effects in BAE cells,"[1]; even at the highest dose tested, 50 μM",not able to suppress
"CCCNC(=O)[C@H]1O[C@@H]1C(=O)N[C@H](C(=O)N1CCC[C@H]1C(=O)OC)[C@@H](C)CC [CA074me, CA-074 me]",reversal of LIF-induced growth inhibition in BAE cells,[1],alleviated LIF-induced growth inhibition
O=C(NCc1ccccc1)[C@H](Cc1ccccc1)NC(=O)[C@@H]1O[C@@H]1C(=O)NCCc1ccc(O)cc1 [CAA0225],reversal of LIF-induced growth inhibition in BAE cells,[1],repressed LIF-induced growth inhibition in BAE cells although by less extent
"COC(=O)C[C@H](NC(=O)[C@@H](NC(=O)c1ccc2ccccc2n1)C(C)C)C(=O)COc1c(F)cccc1F [Q-VD-OPH, Q-VD(OMe)-OPh]",rescue of the cell death phenotype induced by LIF,[1],not able rescue
"COC(=O)CC[C@H](NC(=O)[C@H](CC(=O)OC)NC(=O)OCc1ccccc1)C(=O)N[C@H](C(=O)N[C@@H](CC(=O)OC)C(=O)CF)C(C)C [Z-DEVD-fmk, Z-DEVD-FMK]",rescue of the cell death phenotype induced by LIF,[1],not able rescue
"COC(=O)C[C@H](NC(=O)[C@H](C)NC(=O)[C@@H](NC(=O)OCc1ccccc1)C(C)C)C(=O)CF [Z-VAD-fmk, Z-VAD-FMK] (Cbz-Val-Ala-Asp(OMe)-CH2F)",rescue of the cell death phenotype induced by LIF,[1],not able rescue
O=C(c1ccc(F)c(F)c1Nc1ccc(I)cc1F)N1CC(O)([C@@H]2CCCCN2)C1 [cobimetinib],effect on LIF-induced phosphorylation of ERK MAPK,[2]; then LIF 10 ng/ml 15 minutes,blocked
same,effect on LIF-induced phosphorylation of STAT3,[2]; then LIF 10 ng/ml 15 minutes,no effects
same,effect on AKT phosphorylation,[2],no effects
same,effect on LIF-induced phosphorylation of ERK,[3],effectively repressed
same,effect on LIF-induced BCE cell growth,[4],minimal effects
"IGFBP3: recombinant IGFBP3, a secreted protein previously shown to be an angiogenesis inhibitor",BAE cell growth,[1],had no effects
IL-8: recombinant human IL-8,stimulation of BCE cell growth (mitogenic activity),[4],fail to stimulate BCE cell growth
same,BCE cell growth normalized to the vehicle control group,[4]; 1 ng/ml,ns
same,BCE cell growth normalized to the vehicle control group,[4]; 3 ng/ml,ns
same,BCE cell growth normalized to the vehicle control group,[4]; 10 ng/ml,ns
same,BCE cell growth normalized to the vehicle control group,[4]; 30 ng/ml,ns
same,BCE cell growth normalized to the vehicle control group,[4]; 100 ng/ml,ns
same,BCE cell growth normalized to the vehicle control group,[4]; 300 ng/ml,ns
PDGF-AA: recombinant human PDGF-AA,stimulation of BCE cell growth (mitogenic activity),[4],fail to stimulate BCE cell growth
same,BCE cell growth normalized to the vehicle control group,[4]; 1 ng/ml,ns
same,BCE cell growth normalized to the vehicle control group,[4]; 3 ng/ml,ns
same,BCE cell growth normalized to the vehicle control group,[4]; 10 ng/ml,ns
same,BCE cell growth normalized to the vehicle control group,[4]; 30 ng/ml,ns
same,BCE cell growth normalized to the vehicle control group,[4]; 100 ng/ml,ns
same,BCE cell growth normalized to the vehicle control group,[4]; 300 ng/ml,ns
heat-inactivated LIF: recombinant LIF heat-inactivated by exposure to 95° C. for 2 hours,ability to promote angiogenesis in vivo,[5],abolished
same,ability to promote mitogenesis in vitro,[4]; after exposure to 95° C. for 2 hours,abolished
